In the CheMixHub viscosity set:
± gives the uncertainty stated by the source.

Test: xn = mol fraction of the nth substance listed

CCCCCCCO + COC(=O)OC
Settings	viscosity [mPa·s]
293.15 K, 101 kPa, x2 = 0.04189	6.005
293.15 K, 101 kPa, x2 = 0.08197	5.163
293.15 K, 101 kPa, x2 = 0.1998	3.52
293.15 K, 101 kPa, x2 = 0.2986	2.615
293.15 K, 101 kPa, x2 = 0.4163	1.928
293.15 K, 101 kPa, x2 = 0.482	1.64
293.15 K, 101 kPa, x2 = 0.6031	1.231
293.15 K, 101 kPa, x2 = 0.7204	0.956
293.15 K, 101 kPa, x2 = 0.7985	0.818
293.15 K, 101 kPa, x2 = 0.9076	0.691
293.15 K, 101 kPa, x2 = 0.9573	0.661
303.15 K, 100 kPa, x2 = 0.0999	3.588 ± 0.11
303.15 K, 100 kPa, x2 = 0.2	2.668 ± 0.082
303.15 K, 100 kPa, x2 = 0.3001	2.033 ± 0.062
303.15 K, 100 kPa, x2 = 0.4	1.59 ± 0.049
303.15 K, 100 kPa, x2 = 0.5001	1.275 ± 0.039
303.15 K, 100 kPa, x2 = 0.6	1.061 ± 0.033
303.15 K, 100 kPa, x2 = 0.7	0.869 ± 0.027
303.15 K, 100 kPa, x2 = 0.8	0.707 ± 0.022
303.15 K, 100 kPa, x2 = 0.8999	0.609 ± 0.019
303.15 K, 101 kPa, x2 = 0.06371	4.012
303.15 K, 101 kPa, x2 = 0.1014	3.549
303.15 K, 101 kPa, x2 = 0.2001	2.661
303.15 K, 101 kPa, x2 = 0.2928	2.07
303.15 K, 101 kPa, x2 = 0.4019	1.583
303.15 K, 101 kPa, x2 = 0.4949	1.282
303.15 K, 101 kPa, x2 = 0.5788	1.071
303.15 K, 101 kPa, x2 = 0.715	0.817
303.15 K, 101 kPa, x2 = 0.7902	0.719
303.15 K, 101 kPa, x2 = 0.9063	0.607
303.15 K, 101 kPa, x2 = 0.9354	0.584
308.15 K, 100 kPa, x2 = 0.0999	3.119 ± 0.096
308.15 K, 100 kPa, x2 = 0.2	2.351 ± 0.072
308.15 K, 100 kPa, x2 = 0.3001	1.809 ± 0.056
308.15 K, 100 kPa, x2 = 0.4	1.434 ± 0.044
308.15 K, 100 kPa, x2 = 0.5001	1.149 ± 0.035
308.15 K, 100 kPa, x2 = 0.6	0.964 ± 0.03
308.15 K, 100 kPa, x2 = 0.7	0.789 ± 0.024
308.15 K, 100 kPa, x2 = 0.8	0.66 ± 0.02
308.15 K, 100 kPa, x2 = 0.8999	0.57 ± 0.018
313.15 K, 100 kPa, x2 = 0.0999	2.725 ± 0.084
313.15 K, 100 kPa, x2 = 0.2	2.077 ± 0.064
313.15 K, 100 kPa, x2 = 0.3001	1.616 ± 0.05
313.15 K, 100 kPa, x2 = 0.4	1.288 ± 0.04
313.15 K, 100 kPa, x2 = 0.5001	1.049 ± 0.032
313.15 K, 100 kPa, x2 = 0.6	0.875 ± 0.027
313.15 K, 100 kPa, x2 = 0.7	0.73 ± 0.023
313.15 K, 100 kPa, x2 = 0.8	0.612 ± 0.019
313.15 K, 100 kPa, x2 = 0.8999	0.536 ± 0.017
313.15 K, 101 kPa, x2 = 0.04009	3.253
313.15 K, 101 kPa, x2 = 0.09588	2.743
313.15 K, 101 kPa, x2 = 0.2155	1.974
313.15 K, 101 kPa, x2 = 0.3104	1.571
313.15 K, 101 kPa, x2 = 0.4052	1.267
313.15 K, 101 kPa, x2 = 0.4938	1.054
313.15 K, 101 kPa, x2 = 0.5968	0.859
313.15 K, 101 kPa, x2 = 0.7024	0.709
313.15 K, 101 kPa, x2 = 0.7953	0.613
313.15 K, 101 kPa, x2 = 0.9018	0.535
313.15 K, 101 kPa, x2 = 0.9477	0.509
318.15 K, 100 kPa, x2 = 0.0999	2.392 ± 0.073
318.15 K, 100 kPa, x2 = 0.2	1.847 ± 0.057
318.15 K, 100 kPa, x2 = 0.3001	1.454 ± 0.045
318.15 K, 100 kPa, x2 = 0.4	1.171 ± 0.036
318.15 K, 100 kPa, x2 = 0.5001	0.961 ± 0.03
318.15 K, 100 kPa, x2 = 0.6	0.809 ± 0.025
318.15 K, 100 kPa, x2 = 0.7	0.683 ± 0.021
318.15 K, 100 kPa, x2 = 0.8	0.573 ± 0.018
318.15 K, 100 kPa, x2 = 0.8999	0.504 ± 0.016
323.15 K, 100 kPa, x2 = 0.0999	2.113 ± 0.065
323.15 K, 100 kPa, x2 = 0.2	1.651 ± 0.051
323.15 K, 100 kPa, x2 = 0.3001	1.31 ± 0.04
323.15 K, 100 kPa, x2 = 0.4	1.068 ± 0.033
323.15 K, 100 kPa, x2 = 0.5001	0.885 ± 0.027
323.15 K, 100 kPa, x2 = 0.6	0.738 ± 0.023
323.15 K, 100 kPa, x2 = 0.7	0.638 ± 0.02
323.15 K, 100 kPa, x2 = 0.8	0.539 ± 0.017
323.15 K, 100 kPa, x2 = 0.8999	0.476 ± 0.015
